For series [1], the system named is Human betaherpesvirus 5. Briefly: Antiviral activity against human Cytomegalovirus infected in human ARPE-19 cells assessed as reduction in virus-induced cytopathic effect at 0.75 uM incubated for 10 days by Hoechst 33342 staining based microscopic analysis. Type of series: functional, cell-based. The conditions noted are these: time 10.0 day.
Series [2] has as its system Human betaherpesvirus 5. The series can be described thus: Induction of viral absorption in human Cytomegalovirus harboring ANCHOR infected in human ARPE-19 cells at 0.187 to 3 uM incubated for 18 hrs post infection by Hoechst 33342 staining based microscopic analysis. Format: functional, organism-based. The conditions noted are these: dose microM 0.187-3, time 18.0 hrs.

Series [3] can be described thus: Cytotoxicity against human MRC5 cells assessed as reduction in cell viability incubated for 6 days by Hoechst 33342 staining based microscopic analysis. The conditions noted are these: time 6 day.
For series [4], the system named is Human betaherpesvirus 5. The series can be described thus: Antiviral activity against Human cytomegalovirus harboring ANCHOR infected in ARPE-19 cells assessed as reduction in viral infection at 0.75 uM measured after 6 days by microscopic analysis relative to control. Type of series: functional, cell-based. The conditions noted are these: time 6.0 day.
The test system of series [5] is Human betaherpesvirus 5. The series can be described thus: Induction of viral absorption in human Cytomegalovirus harboring ANCHOR infected in human MRC-5 cells at 0.187 to 3 uM incubated for 18 hrs post infection by Hoechst 33342 staining based microscopic analysis. Type of series: functional, organism-based. The settings on record: MRC5, dose microM 0.187-3, time 18.0 hrs.

Series [6] concerns Human betaherpesvirus 5. The series can be described thus: Antiviral activity against human Cytomegalovirus infected in human ARPE-19 cells assessed as reduction in viral DNA replication at 0.187-3 uM incubated for 18 hrs by Hoechst 33342 staining based microscopic analysis. The conditions noted are these: dose microM 0.187-3, time 18.0 hrs. Type of series: functional, cell-based.

The test system of series [7] is Human betaherpesvirus 5. The series can be described thus: Antiviral activity against human Cytomegalovirus infected in human ARPE-19 cells assessed as reduction in infection rate incubated for 12 days by Hoechst 33342 staining based microscopic analysis. The conditions noted are these: Human betaherpesvirus 5, ARPE-19, 288 h. Type of series: functional, cell-based.

The test system of series [8] is Human betaherpesvirus 5. Briefly: Virucidal activity against human Cytomegalovirus infected in MRC-5 cells at 0.187 to 3 uM preincubated for 1 hr with virus followed by cell line addition and measured after 24 hrs by Hoechst 33342 staining based microscopic analysis. Type of series: functional. The settings on record: MRC5, dose microM 0.187-3, time 25.0 hrs.
For series [9], the system named is Human betaherpesvirus 5. The series can be described thus: Antiviral activity against human Cytomegalovirus harboring ANCHOR infected in ARPE-19 cells assessed as reduction in infection rate preincubated for 2 hrs with cells followed by infected with virus and measured after 24 hrs by Hoechst 33342 staining based microscopic analysis. Type of series: functional, cell-based. The settings on record: dose microM 0.187-3, time 26.0 hrs.

Series [10] is described as follows: Selectivity index, ratio of CC50 for human MRC5 cells to IC50 for human Cytomegalovirus infected in human MRC5 cells incubated for 6 days. Type of series: toxicity, cell-based. The settings on record: time 6 day, read-out: Ratio CC50/IC50.
Series [11] has as its system Human betaherpesvirus 5. The series can be described thus: Induction of viral entry in human Cytomegalovirus harboring ANCHOR infected in human ARPE-19 cells at 0.187 to 3 uM incubated for 18 hrs by Hoechst 33342 staining based microscopic analysis. Type of series: functional, organism-based. The conditions noted are these: dose microM 0.187-3, time 18.0 hrs.
Series [12] deals with Human betaherpesvirus 5. The series can be described thus: Antiviral activity against human Cytomegalovirus harboring ANCHOR assessed as reduction in infection rate incubated for 1 hr followed by cell line addition and measured after 24 hrs by Hoechst 33342 staining based microscopic analysis. The settings on record: ARPE-19, dose microM 0.187-3, time 25.0 hrs. Format: functional.

The nature of series [13]: Selectivity index, ratio of CC50 for human MRC5 cells to IC50 for human Cytomegalovirus infected in human ARPE-19 cells incubated for 12 days. Type of series: toxicity, cell-based. The conditions noted are these: time 6 day, read-out: Ratio CC50/IC50.
Series [14] relates to Human betaherpesvirus 5. Briefly: Antiviral activity against human Cytomegalovirus harboring ANCHOR assessed as reduction in viral DNA replication incubated for 1 hr followed by cell line addition and measured after 24 hrs by Hoechst 33342 staining based microscopic analysis. Type of series: functional. The settings on record: ARPE-19, dose microM 0.187-3, time 25.0 hrs.
Series [15] relates to Human betaherpesvirus 5. The series can be described thus: Virucidal activity against human Cytomegalovirus infected in APRE-19 cells at 0.187 to 3 uM preincubated for 1 hr with virus followed by cell line addition and measured after 24 hrs by Hoechst 33342 staining based microscopic analysis. The conditions noted are these: ARPE-19, dose microM 0.187-3, time 25.0 hrs. Format: functional.

In series [16] the test system is Human betaherpesvirus 5. The series can be described thus: Antiviral activity against human Cytomegalovirus infected in human MRC5 cells assessed as reduction in infection rate at 0.187 to 3 uM treated 24 hrs after infection measured after 6 days by Hoechst 33342 staining based microscopic analysis. Format: functional, cell-based. The settings on record: dose microM 0.187-3, time 6.0 day.

In series [17] the test system is Human betaherpesvirus 5. Briefly: Antiviral activity against human Cytomegalovirus infected in human MRC5 cells assessed as reduction in viral infection rate at 0.75 uM incubated for 6 days by Hoechst 33342 staining based microscopic analysis. Format: functional, cell-based. The conditions noted are these: time 6.0 day.
The test system of series [18] is Human betaherpesvirus 5. The series can be described thus: Induction of viral entry in human Cytomegalovirus harboring ANCHOR infected in human MRC-5 cells at 0.187 to 3 uM incubated for 18 hrs by Hoechst 33342 staining based microscopic analysis. The conditions noted are these: MRC5, dose microM 0.187-3, time 18.0 hrs. Format: functional, organism-based.
Series [19] concerns Human betaherpesvirus 5. The series can be described thus: Antiviral activity against human Cytomegalovirus infected in human MRC5 cells assessed as reduction in infection rate at 0.187 to 3 uM preincubated for 1 hr with cells by Hoechst 33342 staining based microscopic analysis. Format: functional, cell-based. The settings on record: dose microM 0.187-3, time 1.0 hrs.
Series [20] has as its system Human betaherpesvirus 5. Briefly: Antiviral activity against human Cytomegalovirus infected in human MRC5 cells assessed as reduction in viral replication at 0.75 uM incubated for 6 days by Hoechst 33342 staining based microscopic analysis. Format: functional, cell-based. The conditions noted are these: time 6.0 day.
The test system of series [21] is Human betaherpesvirus 5. The series can be described thus: Antiviral activity against Human Cytomegalovirus infected in human MRC5 cells assessed as reduction in infection rate incubated for 6 days by Hoechst 33342 staining based microscopic analysis. The settings on record: Human betaherpesvirus 5, MRC5, 144 h; read-out: IC50. Format: functional, cell-based.
For series [22], the system named is Human betaherpesvirus 5. The series can be described thus: Antiviral activity against human Cytomegalovirus harboring ANCHOR infected in human ARPE-19 cells assessed as reduction in viral infection rate at 0.187 to 3 uM incubated for 18 hrs post infection by Hoechst 33342 staining based microscopic analysis. The settings on record: dose microM 0.187-3, time 18.0 hrs. Format: functional, cell-based.

In series [23] the test system is RK13. The series can be described thus: Effect on gB expression in human Cytomegalovirus harboring ANCHOR infected in rabbit RK13 cells assessed as reduction in replication at late phase by at 5 uM by immunofluorescence assay. Type of series: functional, cell-based. The conditions noted are these: Human betaherpesvirus 5.
In series [24] the test system is Human betaherpesvirus 5. The series can be described thus: Antiviral activity against human Cytomegalovirus harboring ANCHOR infected in ARPE-19 cells assessed as reduction in viral DNA replication preincubated for 2 hrs with cells followed by infected with virus and measured after 24 hrs by Hoechst 33342 staining based microscopic analysis. Format: functional, cell-based. The conditions noted are these: dose microM 0.187-3, time 26.0 hrs.

Series [25] deals with Human betaherpesvirus 5. The series can be described thus: Antiviral activity against human Cytomegalovirus harboring ANCHOR infected in human ARPE-19 cells assessed as reduction in infection rate at 1.25 to 2.5 uM incubated for 10 days by Hoechst 33342 staining based microscopic analysis. The settings on record: dose microM 1.25-2.5, time 10.0 day. Format: functional, cell-based.

The nature of series [26]: Drug uptake in rabbit RK13 cells incubated for 24 hrs by Hoechst staining based microscopic analysis. Type of series: ADME, cell-based, Oryctolagus cuniculus. The conditions noted are these: rk13, 24 h.
Series [27] relates to Human betaherpesvirus 5. The series can be described thus: Antiviral activity against human Cytomegalovirus infected in human ARPE-19 cells assessed as reduction in infection rate incubated for 6 days by Hoechst 33342 staining based microscopic analysis. The settings on record: Human betaherpesvirus 5, ARPE-19, 144 h; read-out: IC50. Type of series: functional, cell-based.

Series [28] can be described thus: Cytotoxicity against human ARPE-19 cells assessed as reduction in cell viability incubated for 6 days by Hoechst 33342 staining based microscopic analysis. The conditions noted are these: time 6 day.
Series [29] relates to Human betaherpesvirus 5. The series can be described thus: Antiviral activity against human Cytomegalovirus harboring ANCHOR infected in human MRC5 cells assessed as reduction in infection rate at 2.5 to 5 uM incubated for 6 days by Hoechst 33342 staining based microscopic analysis. Format: functional, cell-based. The conditions noted are these: dose microM 2.5-5, time 6.0 day.

The nature of series [30]: Cytotoxicity against human MRC5 cells assessed as assessed as number of fluorescent nuclei incubated for 6 days by Hoechst 33342 staining based microscopic analysis. Type of series: cell-based. The settings on record: time 6 day.
Series [31] in a line: Cytotoxicity against human ARPE-19 cells assessed as assessed as number of fluorescent nuclei incubated for 6 days by Hoechst 33342 staining based microscopic analysis. Format: cell-based. The conditions noted are these: time 6 day.

SMILES strings stand for the structures. Activity calls are given as the source filed them. The rule behind the calls is not given here. Some results are limits rather than exact numbers.

`Fc1c(F)c(F)c(-c2c3nc(c4ccc([nH]4)c(-c4c(F)c(F)c(F)c(F)c4F)c4ccc([nH]4)c(-c4c(F)c(F)c(F)c(F)c4F)c4ccc2[nH]4)C=C3)c(F)c1F`: the result in series [1], in series [2], in series [4], in series [6], in series [11] and in [16] was Active. The outcome in series [17], in [20] and in series [23] was Active. Further, the CC50 at 144 h in series [3] is 3.27 µM. In addition, the Activity result in series [5], in [12], in [14] and in [18] was “Dose-dependent effect” in each case. Also, the IC50 in series [7] is 0.96 µM; in series [21], 1.19 µM. For the same molecule, the outcome in series [8], in [9], in [15], in series [19], in series [22] and in series [24] was inactive. For the same molecule, the values for the selectivity ratio at 144 h in series [10] and in [13] were 2.75 and 27, respectively.
Take `Fc1cc(F)c(F)c(-c2c3nc(c4ccc([nH]4)c(-c4cc(F)cc(F)c4F)c4ccc([nH]4)c(-c4cc(F)cc(F)c4F)c4ccc2[nH]4)C=C3)c1`: the result in [25] and in [29] was inactive. Moreover, the CC50 at 144 h in series [3] and in series [28] was more than 50 µM each time. Moreover, in series [26], the Drug uptake result is reported as “Active”. Also, in series [10], the selectivity ratio at 144 h was more than 7. The IC50 in [27] worked out at 3.8 µM; in [21] it was 6 µM.
`Fc1cc(F)c(F)c(-c2c3nc(c4ccc([nH]4)c(-c4c(F)c(F)cc(F)c4F)c4ccc([nH]4)c(-c4c(F)c(F)cc(F)c4F)c4ccc2[nH]4)C=C3)c1F`: the CC50 at 144 h in series [3] was determined as 25.3 µM; in series [30], 3.4 µM; in series [31] it was 22.5 µM. The figures for the IC50 in series [7] and in series [21] were 0.16 µM and 1.04 µM, respectively. Further, the selectivity ratio at 144 h in series [10] was more than 24; in series [13], more than 312.
